Measured values as given in patent publication US8466129B2, “Method of preventing and treating airway remodeling and pulmonary inflammation using A2B adenosine receptor antagonists” (Gilead Sciences, Inc., priority 2004, dated 2013).
“Also recorded” adds a separate entry of the source.

Experiments:
[1] = system: ADA-deficient (ADA−/−) mice; test: Collagen deposition (Masson's trichrome) and soluble collagen (Sircol assay) in ADA-deficient mice; assay type: in vivo, mouse; conditions: 1 mg/kg ip twice daily for 17 days
Description: (§1) Mice treated by intraperitoneal (ip) injection twice daily with 1 mg/kg 3-ethyl-1-propyl -8-{1-[(3-trifluoromethylphenyl)methyl]pyrazol-4-yl}1,3,7-trihydropurine-2,6-dione. The specific protocol is as follows: ADA-deficient (ADA−/−) or ADA containing (ADA+) mice were identified at birth by screening of ADA enzymatic activity in the blood. ADA−/− mice were maintained on ADA enzyme therapy from postnatal day 2 until postnatal day 21. At this stage, treatments with 3-ethyl-1-propyl-8-{1-[(3-trifluoromethylphenyl)methyl] pyrazol -4-yl}-1,3,7-trihydropurine-2,6-dione or vehicle controls (corn oil/ethanol/DMSO) were initiated. Treatments consisted of an ip injection in the morning (8-9 AM) and in the evening (5-6 pm). Treatments were given daily for 17 days, and the experiment was terminated on postnatal day 38. Treatment groups included ADA−/− or ADA+mice receiving 3-ethyl-1-propyl-8-{1-[(3-trifluoromethylphenyl)methyl]pyrazol-4-yl}-1,3,7-trihydropurine-2,6-dione, vehicle, or no treatment. All mice were littermates and were therefore strain matched. Both males and females were included in these experiments. At the termination of the experiment, serum was collected for pharmacokinetics (PK) analysis of 3-ethyl-1-propyl -8-{1-[(3-trifluoromethylphenyl)methyl]pyrazol-4-yl}-1,3,7-trihydropurine -2,6-dione levels and various pulmonary endpoints were examined.
Mice were anesthetized with avertin, and lungs were lavaged four times with 0.3 ml PBS, and 0.95-1 ml of pooled lavage fluid was recovered. Total cell counts were determined using a hemocytometer, and aliquots were cytospun onto microscope slides and stained with Diff-Quick (Dade Nehring) for cellular differentials. Lungs were then infused with 4% paraformaldehyde in PBS at 25 cm of pressure and then fixed overnight at 4° C. Fixed lung samples were rinsed in PBS, dehydrated, and embedded in paraffin. Sections (5 μm) were collected on microscope slides and stained with hematoxylin and eosin (H&E; Shandon-Lipshaw) or Masson's trichrome (EM Science), according to manufacturer's instructions. […]

[2] = system: ADA-deficient (ADA−/−) mice; test: Bronchiolalveolar lavage (BAL) cell counts and cellular differentials in ADA-deficient mice; assay type: in vivo, mouse; conditions: 1 mg/kg ip twice daily for 17 days
Description: as §1
(§2) Mice were anesthetized with avertin, and lungs were lavaged four times with 0.3 ml PBS, and 0.95-1 ml of pooled lavage fluid was recovered. Total cell counts were determined using a hemocytometer, and aliquots were cytospun onto microscope slides and stained with Diff-Quick (Dade Nehring) for cellular differentials. Lungs were then infused with 4% paraformaldehyde in PBS at 25 cm of pressure and then fixed overnight at 4° C. Fixed lung samples were rinsed in PBS, dehydrated, and embedded in paraffin. Sections (5 μm) were collected on microscope slides and stained with hematoxylin and eosin (H&E; Shandon-Lipshaw) or Masson's trichrome (EM Science), according to manufacturer's instructions.

[3] = system: ADA-deficient (ADA−/−) mice; test: Whole lung transcript levels by quantitative real-time RT-PCR in ADA-deficient mice; assay type: in vivo, mouse; conditions: 1 mg/kg ip twice daily for 17 days, vs vehicle-treated ADA−/− mice
Description: as §1
Mice were anesthetized and the lungs were rapidly removed and frozen in liquid nitrogen. RNA was isolated from frozen lung tissue using TRIzol Reagent (Life Technologies Inc., Grand Island, N.Y., USA). RNA samples were then DNase treated and subjected to quantitative real-time RT-PCR. The primers, probes and procedures for real-time RT-PCR were described previously in Sun et al. (2005) J Clin Invest 115:35-43. Reactions were carried out on a Smart Cycler rapid thermal cycler system (Cepheid, Sunnyvale, Calif.). Specific transcript levels were determined using Smart Cycler analysis software through comparison to a standard curve generated from the PCR amplification of template dilutions.

[4] = system: ADA-deficient (ADA−/−) mice; test: General health and lung histology (H&E) in the ADA-deficient mouse model of adenosine-dependent pulmonary injury; assay type: in vivo; conditions: 1 mg/kg ip twice daily for 17 days
Source text: The model system being used is the adenosine deaminase (ADA)-deficient mouse model of adenosine-dependent pulmonary injury. In this model, elevations in adenosine are associated with increased pulmonary inflammation and airway remodeling. Many of the features seen in these mice resemble those observed in patients with various forms of chronic lung disease including severe asthma, COPD and pulmonary fibrosis. The approach is to treat these mice with the A2B AR antagonist 3-ethyl-1-propyl-8-{1-[(3-trifluoromethylphenyl)methyl]pyrazol -4-yl}-1,3,7-trihydropurine-2,6-dione as a means to probe A2BAR contributions to pulmonary inflammation and injury in ADA-deficient mice, which should provide insight into the efficacy of this drug for the treatment of chronic lung diseases.
as §1
ADA-deficient mice were generated and genotyped as described (Blackburn et al. (1998) J Biol Chem 273:5093-5100 and Young et al. (2004) J. Immunol. 173:1380-1389. Mice homozygous for the null Ada allele were designated ADA-deficient (ADA^−/−), while mice heterozygous for the null Ada allele were designated as ADA control mice (ADA^+). All mice were on a mixed 129sv/C57BL/6J background and all phenotypic comparisons were performed amongst littermates. Animal care was in accordance with institutional and NIH guidelines. Mice were housed in ventilated cages equipped with microisolator lids and maintained under strict containment protocols. No evidence of bacterial, parasitic, or fungal infection was found, and serologies on cage littermates were negative for 12 of the most common murine viruses.
as §2

[5] = system: ADA-deficient (ADA−/−) mice; test: Alveolar airspace size (histology, mean chord length) in ADA-deficient mice; assay type: in vivo, mouse; conditions: 1 mg/kg ip twice daily for 17 days
Description: Mice treated by intraperitoneal (ip) injection twice daily with 1 mg/kg 3-ethyl-1-propyl -8-{1-[(3-trifluoromethylphenyl)methyl]pyrazol-4-yl}1,3,7-trihydropurine-2,6-dione. The specific protocol is as follows: ADA-deficient (ADA−/−) or ADA containing (ADA+) mice were identified at birth by screening of ADA enzymatic activity in the blood. ADA−/− mice were maintained on ADA enzyme therapy from postnatal day 2 until postnatal day 21. At this stage, treatments with 3-ethyl-1-propyl-8-{1-[(3-trifluoromethylphenyl)methyl] pyrazol -4-yl}-1,3,7-trihydropurine-2,6-dione or vehicle controls (corn oil/ethanol/DMSO) were initiated. […]
Mice were anesthetized with avertin, and lungs were lavaged four times with 0.3 ml PBS, and 0.95-1 ml of pooled lavage fluid was recovered. Total cell counts were determined using a hemocytometer, and aliquots were cytospun onto microscope slides and stained with Diff-Quick (Dade Nehring) for cellular differentials. […]
The size of alveolar airways was determined in pressure infused lungs by measuring mean chord lengths on H&E-stained lung sections (Blackburn et al. (2000) J Exp Med 192:159-170). […] This line grid was subtracted from the lung images using Image-Pro® Plus (Media Cybernetics) image analysis software, and the resultant lines were measured and averaged to give the mean chord length of the alveolar airways. […]

[6] = system: ADA-deficient (ADA−/−) mice; test: α-smooth muscle actin immunostaining of lung myofibroblasts in ADA-deficient mice; assay type: in vivo, mouse; conditions: 1 mg/kg ip twice daily for 17 days
Description: as §1, with “examined. […]” for “examined.”

[7] = ADA−/− mice, vs vehicle-treated ADA−/− mice
[8] = listed as adenosine A2B receptor antagonist, 1 mg/kg

CCCn1c(=O)c2[nH]c(-c3cnn(Cc4cccc(C(F)(F)F)c4)c3)nc2n(CC)c1=O [3-ethyl-1-propyl-8-(1-{[3-(trifluoromethyl)phenyl]methyl}pyrazol-4-yl)-1,3,7-trihydropurine-2,6-dione]
collagen deposition in the lungs (Masson's trichrome) ([1]; ADA+ control mice): little to no
collagen deposition in the airways (Masson's trichrome) ([1]; ADA−/− mice): reduction
increase in collagen production: collagen protein levels in BAL fluid [1, 7]: largely prevented
airway inflammation [2]: significant decrease
alveolar macrophage activation (BAL cells) [2]: reduction
alveolar macrophages in BAL [2]: reduction
eosinophils in BAL [2]: reduction
lymphocytes in BAL [2]: reduction
neutrophils in BAL [2]: reduction
number of total cells recovered from BAL ([2]; vs vehicle-treated ADA−/− mice): significant reduction
Eotaxin I level, whole lung RNA [3]: significantly lower
IL-4 level, whole lung RNA [3]: did not change
IL-5 level, whole lung RNA [3]: did not change
IL-6 level, whole lung RNA [3]: significantly lower
MMP-9 expression, whole lung RNA [3]: diminished
MMP-12 expression, whole lung RNA [3]: diminished
RANTES level, whole lung RNA [3]: did not change
TARC level, whole lung RNA [3]: significantly lower
TIMP-1 expression, whole lung RNA [3]: diminished
TNFα level, whole lung RNA [3]: did not change
increase in collagen production: whole lung α1-procollagen transcript levels [3]: largely prevented
monocyte chemoattractant proteins (MCPs) level, whole lung RNA [3]: did not change
TGF-β1 expression (transcripts), whole lung [3, 8]: lower levels; also recorded: decreased
osteopontin (OPN) expression (transcripts), whole lung [3, 8]: lower levels; also recorded: decreased
plasminogen activator inhibitor-1 (PAI-1) expression (transcripts), whole lung [3, 8]: lower levels; also recorded: decreased
alveolar airway simplification (H&E histology) ([4]; ADA+ control mice): not evident
pulmonary inflammation (H&E histology) ([4]; ADA+ control mice): not evident
pulmonary inflammation and airway destruction ([4]; ADA−/− mice): significant reduction
alveolar airway simplification (H&E histology) [4, 7]: significant decrease
pulmonary inflammation (H&E histology) [4, 7]: significant decrease
outward signs of severe respiratory distress (rapid breathing and hunched posture) ([4]; ADA−/− mice, seen in vehicle-treated or untreated ADA−/− mice): not observed
distal airway enlargement (histology) [5]: prevented
distal airway size (mean cord length) [5]: agreed with the histological observations
α-sma positive cells in the distal airways (myofibroblast accumulation) [6]: Few to no
